Assay results from paper PMC12643230, “Retention order prediction of peptides containing non-proteinogenic amino acids” (Bioinformatics Advances, 2025).
Like-named read-outs stand apart in the source and are kept apart here.

Experiment: LC/MS retention time of standard compounds and sponge extract (in-house platform)
Type: physicochemical
Parameters: RT (retention time): unit not given here
Procedure: Total 22 compounds and 9 PNPA standards covering a long time-range were purchased as reference standards (Table 1). Each standard compound was experimentally measured with our in-house LC/MS platform with conditions in Supporting Table 1, available as supplementary data at Bioinformatics Advances online.
The resulting extract was dissolved in methanol and subjected to LC/MS analysis with conditions in Supporting Table 1, available as supplementary data at Bioinformatics Advances online, for metabolite profiling.

[1] = purchased PNPA standard, in-house LC/MS platform, conditions in Supporting Table 1 (not shown), retention time related to hydrophobic/hydrophilic substructures, unit not given

Molecule | RT (retention time) [1] | also measured
C=CC/C(=N/OS(=O)(=O)O)S[C@@H]1O[C@H](CO)[C@@H](O)[C@H](O)[C@H]1O [2-Propenyl glucosinolate] |  | RT (retention time of the reference compound) (LC/MS, in-house platform, reference compound used for retention order comparison, sheet COCONUT): 1.74 min
α-Amanitin | 3.41 | 
Bacitracin |  | RT (retention time): 4.67
[Arg8]-Vasopressin | 3.11 | 
Jaspamide [Measured compound] |  | Retention order of the measured compound against reference compound 2-Propenyl glucosinolate (binary 1/0) (column 'Measured compound', reference RT 1.74, observed order, no key for 1/0 printed, sheet COCONUT): 1; RT (retention time) of measured compound (compound detected in methanol extract of marine sponge Jaspis splendens, same in-house LC/MS conditions (Supporting Table 1), annotated as Jaspamide via retention order and MS/MS, unit not given): 8.45
Gramicidin A | 9.19 | 
C/C(=C\c1csc(C)n1)[C@@H]1C[C@@H]2O[C@]2(C)CCC[C@H](C)[C@H](O)[C@@H](C)C(=O)C(C)(C)[C@@H](O)CC(=O)O1 [Epothilone B] | 7.67 | 
